Test results as given in patent US8029764B2, “Methods for detection of colorectal cancer” (The Johns Hopkins University, priority 2001, dated 2011).

Tested on: colorectal tissue transcripts
Assay: SAGE of normal, adenoma and cancer colorectal tissue (transcript tag counts)
Parameters: species or system human
Method in brief: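 SAGE libraries from two normal colonic epithelium samples, two colorectal adenomas (FAP patients, >70% neoplastic cells) and two colorectal cancers. Transcripts counted as 15-base 3′ tags from oligo(dT)-selected mRNA; repeated ditags, linkers and MHC-locus tags excluded before statistical library comparison.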

[1] = normal colorectal tissue library 1
[2] = normal colorectal tissue library 2

Sequence	AD1 (SAGE tag count) (adenoma library 1)	AD2 (SAGE tag count) (adenoma library 2)	CA1 (SAGE tag count) (cancer library 1)	CA2 (SAGE tag count) (cancer library 2)	NC1 (SAGE tag count) [1]	NC2 (SAGE tag count) [2]	AD1 (SAGE tag count) (SAGE library AD1)	AD2 (SAGE tag count) (SAGE library AD2)	CA1 (SAGE tag count) (SAGE library CA1)	CA2 (SAGE tag count) (SAGE library CA2)	NC1 (SAGE tag count) (SAGE library NC1)	NC2 (SAGE tag count) (SAGE library NC2)	NC2 (SAGE tag count) (SAGE library NC2, major histocompatibility complex, class I, A)	NC2 (SAGE tag count) (SAGE library NC2, major histocompatibility complex, class I, C)
GTGTTGGGGG (chemistry not fully specified)	8	6	1	3	21	19								
GCTCTTCCCC (chemistry not fully specified; the letters are possibly those of the target site)							1	2	2	0	9	21		
ATGTGGGCTC (chemistry not fully specified)							0	0	0	0	7	2		
CCACTGCACC (chemistry not fully specified)							5	5	6	14	21	19		
GTCCGAGTGC (chemistry not fully specified)							0	0	0	0	17	3		
TGGCCATCTG (chemistry not fully specified)	8	7	3	4	30	24								
CTGGCAAAGG (chemistry not fully specified)							1	0	0	0	14	22		
TACTGTGGAT (chemistry not fully specified)	0	2	2	1	4	11								
CCTTCAAATC (chemistry not fully specified)							0	0	1	0	29	17		
GTGCACTGAG (chemistry not fully specified)							14	7	12	13	118		48	45
GATGACCCCC (chemistry not fully specified)							4	3	3	3	42	49		
CGAGGGGCCA (chemistry not fully specified)							18	18	12	32	110	47		
TGGCGCGTGT (chemistry not fully specified)	0	0	9	5	25	8								
GTCATCACCA (chemistry not fully specified; the letters are possibly those of the target site)							0	0	0	0	35	22		
TCAGAGCGCT (chemistry not fully specified)	0	7	0	1	5	21								
CCCCCTGCAT (chemistry not fully specified)							0	0	0	0	5	4		
TCACCGGTCA (chemistry not fully specified)	10	10	5	6	118	75								
GGATGGCTTA (chemistry not fully specified)							2	1	1	1	25	5		
TAATCCCAGC (chemistry not fully specified)	8	7	16	13	37	33								
GCTTGGGGAT (chemistry not fully specified)							2	0	0	0	11	8		
CCTCCAGTAC (chemistry not fully specified)							2	3	2	4	20	8		
ACAGGGTGAC (chemistry not fully specified)							1	8	7	6	25	13		
GTGGCGGGAA (chemistry not fully specified)							1	0	4	0	3	15		
TAGACTAGCA (chemistry not fully specified)	6	6	22	4	31	27								
GTGGTTCACG (chemistry not fully specified)	0	0	0	0	4	5	0	0	0	0	4	5		
AAATCTGGCA (chemistry not fully specified)							2	4	2	0	16	15		
CTGGCCCTCG (chemistry not fully specified)							1	3	15	14	186	52		
ATGTGCGTGG (chemistry not fully specified)							11	3	7	7	38	8		
